Our source for the EC50 and inhibition values is patent US10703748B2, “Diazanaphthalen-3-yl carboxamides and preparation and use thereof” (Samumed, LLC, priority 2017, dated 2020).

The target in one assay is DYRK1A kinase (Homo sapiens, UniProt Q13627). Kind of assay: DYRK1A kinase activity (Ser/Thr 18 peptide Z-lyte FRET assay).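 Further: kinase activity read as coumarin/fluorescein emission ratio after development step, with unphosphorylated and phosphorylated peptide forms setting 0% and 100% controls, values from dose-response curves.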 Format: biochemical. To be noted: recombinant DYRK1A, 30 μM ATP, one hour at room temperature.
Another assay addresses GSK3β kinase (Homo sapiens, UniProt P49841). The assay can be described thus: GSK3β kinase activity (Ser/Thr 09 peptide Z-lyte FRET assay). The assay is classed as biochemical. The conditions noted are these: recombinant kinase, 46 μM ATP, one hour at room temperature; read-out: EC50.
Assay [1] relates to SW480 colon carcinoma cells. Kind of assay: Cell viability assay (CellTiter-Glo). The conditions noted are these: Homo sapiens; for EC50: SW480, 96 h; for inhibition at 10 µM: SW480, read-out: percent inhibition at 10 μM. For orientation: ATP-based viability assays read luminescence as a measure of living cells.
Assay [2] concerns Wnt-responsive Sp5-Luc reporter in SW480 colon carcinoma cells. The assay can be described thus: Screening assay for Wnt activity (Sp5-Luc reporter gene assay). The conditions noted are these: Homo sapiens; for EC50: SW480; for inhibition at 10 µM: SW480, read-out: percent inhibition at 10 μM. (In general: A reporter such as luciferase makes a cellular process visible.)
Another assay concerns IL-6. Kind of assay: IL-6 inhibition in LPS-stimulated human peripheral blood mononuclear cells (HTRF). To be noted: Homo sapiens, PBMC; for EC50: 22 h; for inhibition at 10 µM: read-out: percentage in parentheses after EC50 >10. On the technique in general: Time-resolved FRET reads energy transfer from a long-lived donor to a nearby acceptor.
For assay [3], the system named is α-smooth muscle actin (aSMA) positive LL29 cells. The assay can be described thus: Inhibition of the fibrotic process: αSMA staining in TGF-β1 treated LL29 fibroblasts from IPF patients. To be noted: Homo sapiens, Fibroblast; for EC50: 96 h; for inhibition at 10 µM: read-out: percentage in parentheses after EC50 >10.

Each structure is given as a SMILES string.

GSK3β kinase, sequence (P49841 whole entry): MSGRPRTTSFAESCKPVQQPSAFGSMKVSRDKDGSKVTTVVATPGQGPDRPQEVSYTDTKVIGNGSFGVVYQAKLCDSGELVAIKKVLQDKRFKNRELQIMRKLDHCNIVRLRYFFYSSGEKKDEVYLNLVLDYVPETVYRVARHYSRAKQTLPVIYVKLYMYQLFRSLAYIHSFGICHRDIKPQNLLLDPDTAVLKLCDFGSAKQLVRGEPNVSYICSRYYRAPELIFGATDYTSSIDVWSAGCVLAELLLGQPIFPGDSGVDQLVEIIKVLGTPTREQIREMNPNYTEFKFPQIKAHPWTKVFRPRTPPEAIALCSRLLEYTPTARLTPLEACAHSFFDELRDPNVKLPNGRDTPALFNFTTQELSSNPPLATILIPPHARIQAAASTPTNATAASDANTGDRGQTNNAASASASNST

Regarding `CNC(=O)c1ccc(C(=O)Nc2cc3nc(-c4cn(C)nn4)ccc3cn2)cn1` [Compound 372, N^2-Methyl-N^5-(2-(1-methyl-1H-1,2,3-triazol-4-yl)-1,6-naphthyridin-7-yl) pyridine-2,5-dicarboxamide], the EC50 at DYRK1A kinase is 67 nM; on GSK3β kinase it was 255 nM; in assay [1] it was > 10 µM; in assay [2] it was > 10 µM; in the assay on IL-6, > 10 µM; in assay [3], 3.64 µM. The inhibition at 10 µM in assay [1] was found to be 23.2%; in assay [2], 48.7%; in the assay with IL-6, 0%.
On to `CN(C)C1CCN(c2cc(C(=O)Nc3cc4cc(-c5cn(C)nn5)cnc4cn3)ccn2)CC1` [Compound 3096, 2-(4-(Dimethylamino)piperidin-1-yl)-N-(3-(1-methyl-1H-1,2,3-triazol-4-yl)-1,7-naphthyridin-6-yl)isonicotinamide], for which the EC50 at DYRK1A kinase is 119 nM; on GSK3β kinase it was > 10000 nM; in assay [1] it was 4.09 µM; in assay [2], 0.596 µM; in the assay with IL-6, > 10 µM; in assay [3], > 10 µM. The inhibition at 10 µM in the assay on IL-6 is 0%; in assay [3], 32.7%.
In the case of `Cn1cncc1-c1ccc2cnc(NC(=O)C3CCC(F)(F)CC3)nc2c1` [Compound 1306, 4,4-Difluoro-N-(7-(1-methyl-1H-imidazol-5-yl)quinazolin-2-yl)cyclohexane-1-carboxamide], the EC50 on DYRK1A kinase is 391 nM; at GSK3β kinase, 377 nM; in assay [1], > 10 µM; in assay [2], > 10 µM; with IL-6 it was 8.81 µM; in assay [3] it was 1.8 µM. Further, the inhibition at 10 µM came out at 43.7% in assay [1] and 42.4% in assay [2].
With `Cn1cc(-c2cc3cc(NC(=O)C4CCN(CC5(C(F)(F)F)CC5)CC4)ncc3cn2)nn1` [Compound 3974, N-(6-(1-Methyl-1H-1,2,3-triazol-4-yl)-2,7-naphthyridin-3-yl)-1-((1-(trifluoromethyl)cyclopropyl)methyl)piperidine-4-carboxamide], the EC50 is 184 nM on DYRK1A kinase; 305 nM at GSK3β kinase; 4.92 µM in assay [1]; 0.76 µM in assay [2]; > 10 µM in the assay with IL-6; 2.02 µM in assay [3]. The inhibition at 10 µM in the assay on IL-6 amounted to 6.4%.
As to `Cc1ncc(-c2ccc3cnc(NC(=O)N4CCC(N5CCOCC5)CC4)nc3c2)o1` [Compound 1472, N-(7-(2-Methyloxazol-5-yl)quinazolin-2-yl)-4-morpholinopiperidine-1-carboxamide], the EC50 at DYRK1A kinase was 246 nM; at GSK3β kinase, 2330 nM; in assay [1], > 10 µM; in assay [2] it was > 10 µM; in the assay with IL-6, > 10 µM; in assay [3], > 10 µM. Further, the inhibition at 10 µM in assay [1] was determined as 16.7%; in assay [2] it was 1.6%; in the assay on IL-6, 7.6%; in assay [3], 33.9%.
As to `CN1CCc2ccc(C(=O)Nc3cc4cc(-c5cnn(C)c5)cnc4cn3)cc2C1` [Compound 2922, 2-Methyl-N-(3-(1-methyl-1H-pyrazol-4-yl)-1,7-naphthyridin-6-yl)-1,2,3,4-tetrahydroisoquinoline-7-carboxamide], the EC50 on DYRK1A kinase is 36 nM; on GSK3β kinase, > 10000 nM; in assay [1], > 10 µM; in assay [2] it was 2.42 µM; with IL-6 it was > 10 µM; in assay [3], > 10 µM. Moreover, the inhibition at 10 µM in assay [1] came out at 28.8%; with IL-6, 3.8%; in assay [3] it was 47.2%.
`N#CC(c1cncc(-c2ccc3cnc(NC(=O)C4CC4)nc3c2)c1)N1CCC(O)CC1` (centres unmarked) [Compound 4594, N-(7-(5-(Cyano(4-hydroxypiperidin-1-yl)methyl)pyridin-3-yl)quinazolin-2-yl)cyclopropanecarboxamide]: the 50% effective concentration (EC50) at DYRK1A kinase was 35 nM; on GSK3β kinase, 528 nM; in assay [1], > 10 µM; in assay [2], > 10 µM; in the assay on IL-6, > 10 µM; in assay [3], 3.25 µM. Besides, the inhibition at 10 µM in assay [1] is 15%; in assay [2], 35.6%; with IL-6, 2.4%.
With `CN1CC(COc2cncc(-c3ccc4cnc(NC(=O)c5ccc(F)cc5)nc4c3)n2)C1` [Compound 4595, 4-Fluoro-N-(7-(6-((1-methylazetidin-3-yl)methoxy)pyrazin-2-yl)quinazolin-2-yl)benzamide], the half-maximal effective concentration (EC50) at DYRK1A kinase is 38 nM; at GSK3β kinase it was > 10000 nM; in assay [1], 4.57 µM; in assay [2], > 10 µM; in the assay with IL-6, > 10 µM; in assay [3], > 10 µM. Moreover, the inhibition at 10 µM in assay [2] was 20.1%; in the assay on IL-6, 5.3%; in assay [3] it was 2.8%.
Take `CC(C)Oc1ccc(C(=O)Nc2cc3cc(-c4cnc5n4CCNC5)cnc3cn2)cc1` [Compound 3240, 4-Isopropoxy-N-(3-(5,6,7,8-tetrahydroimidazo[1,2-a]pyrazin-3-yl)-1,7-naphthyridin-6-yl)benzamide]: the concentration for a half-maximal effect (EC50) was 1050 nM on DYRK1A kinase; > 10000 nM at GSK3β kinase; > 10 µM in assay [1]; > 10 µM in assay [2]; > 10 µM with IL-6; > 10 µM in assay [3]. Further, the inhibition at 10 µM came out at 18.6% in assay [1], 0% in assay [2], 10.5% in the assay with IL-6 and 15.9% in assay [3].
Consider `Cn1cc(-c2ccc3cnc(NC(=O)[C@H]4CC[C@H](NC(=O)OC(C)(C)C)CC4)cc3n2)cn1` [Compound 4537, tert-Butyl (trans-4-((2-(1-methyl-1H-pyrazol-4-yl)-1,6-naphthyridin-7-yl)carbamoyl)cyclohexyl)carbamate], for which the EC50 on DYRK1A kinase is 35 nM; at GSK3β kinase it was 543 nM; in assay [1] it was > 10 µM; in assay [2], > 10 µM; in the assay with IL-6, > 10 µM; in assay [3] it was 5.27 µM. In addition, the inhibition at 10 µM in assay [1] amounted to 4.7%; in assay [2] it was 25.3%; in the assay on IL-6, 3%.
Turning to `Cc1ncc(C(=O)Nc2cc3cc(-c4cnc(C)n4C)cnc3cn2)s1` [Compound 3167, N-(3-(1,2-Dimethyl-1H-imidazol-5-yl)-1,7-naphthyridin-6-yl)-2-methylthiazole-5-carboxamide], the EC50 on DYRK1A kinase was 37 nM; at GSK3β kinase, > 10000 nM; in assay [1], > 10 µM; in assay [2], > 10 µM; in the assay with IL-6, > 10 µM; in assay [3], 2.04 µM. The inhibition at 10 µM stood at 8.1% in assay [1], 0% in assay [2] and 5.4% with IL-6.
For the compound `CN1CCN(c2cc(C(=O)Nc3cc4cc(-c5cnc(N)s5)cnc4cn3)ccn2)CC1` [Compound 3403, N-(3-(2-Aminothiazol-5-yl)-1,7-naphthyridin-6-yl)-2-(4-methylpiperazin-1-yl)isonicotinamide], the half-maximal effective concentration (EC50) at DYRK1A kinase is 581 nM; at GSK3β kinase it was > 10000 nM; in assay [1], 1.43 µM; in assay [2], 0.849 µM; in the assay with IL-6 it was > 10 µM; in assay [3], 2.43 µM. In the assay on IL-6, the inhibition at 10 µM was 1.8%.

One may read the EC50 as the concentration needed to bring the measured effect to its halfway point.
